Measurements published in ChEMBL document CHEMBL3885881, “DrugMatrix”.

Organism: Rattus norvegicus
Test: DrugMatrix - Regimen: Daily Repeat
Format: toxicity, organism-based, Sprague-Dawley
Parameters: regimen Daily Repeat, gender Male, age 6-8 weeks
Settings: in vivo, po, route oral GAVAGE, vehicle .5 % CMC; for ABSOLUTE BASOPHIL / ABSOLUTE EOSINOPHIL / ABSOLUTE LYMPHOCYTE / ABSOLUTE MONOCYTE / ABSOLUTE SEGMENTED NEUTROPHIL / BASOPHIL / EOSINOPHIL / ERYTHROCYTE COUNT / HEMATOCRIT / HEMOGLOBIN / LEUKOCYTE COUNT / LYMPHOCYTE / MEAN CORPUSCULAR HEMOGLOBIN / MEAN CORPUSCULAR HEMOGLOBIN CONCENTRATION / MEAN CORPUSCULAR VOLUME / MONOCYTE / NEUTROPHIL / NUCLEATED RED BLOOD CELLS / PLATELET COUNT: tissue Blood; for ALANINE AMINOTRANSFERASE / ALBUMIN / ALKALINE PHOSPHATASE / ASPARTATE AMINOTRANSFERASE / BLOOD UREA NITROGEN / CARBON DIOXIDE / CHLORIDE / CHOLESTEROL / CREATINE PHOSPHOKINASE / CREATININE / GLUCOSE / LACTATE DEHYDROGENASE / LIPASE / PHOSPHORUS / POTASSIUM / SODIUM / TOTAL BILIRUBIN / TOTAL PROTEIN / URIC ACID: tissue Plasma
[1] = 150 mg/kg, 120 h, dose level Low, time 5 day
[2] = 1500 mg/kg, 72 h, dose level High, time 3 day
[3] = 1500 mg/kg, 120 h, dose level High, time 5 day

C[C@]1(Cn2ccnn2)[C@H](C(=O)O)N2C(=O)C[C@H]2S1(=O)=O [TAZOBACTAM]
ABSOLUTE BASOPHIL [1]: 0 CELLS/uL | ABSOLUTE EOSINOPHIL [1]: 96 CELLS/uL | ABSOLUTE LYMPHOCYTE [1]: 12730.67 CELLS/uL | ABSOLUTE MONOCYTE [1]: 0 CELLS/uL | ABSOLUTE SEGMENTED NEUTROPHIL [1]: 1940 CELLS/uL | BASOPHIL [1]: 0% | EOSINOPHIL [1]: 0.67% | ERYTHROCYTE COUNT [1]: 5.47 x10E6/uL | HEMATOCRIT [1]: 33.33% | HEMOGLOBIN [1]: 12.73 G/DL | LEUKOCYTE COUNT [1]: 14.77 x10E3/uL | LYMPHOCYTE [1]: 86% | MEAN CORPUSCULAR HEMOGLOBIN [1]: 23.3 pg | MEAN CORPUSCULAR HEMOGLOBIN CONCENTRATION [1]: 38.2 G/DL | MEAN CORPUSCULAR VOLUME [1]: 60.97 fL | MONOCYTE [1]: 0% | NEUTROPHIL [1]: 13.33% | NUCLEATED RED BLOOD CELLS [1]: 0 /100WBC | PLATELET COUNT [1]: 1082 x10E3/uL | ALANINE AMINOTRANSFERASE [1]: 60.67 u/L | ALBUMIN [1]: 4.2 G/DL | ALKALINE PHOSPHATASE [1]: 333 u/L | ASPARTATE AMINOTRANSFERASE [1]: 84 u/L | BLOOD UREA NITROGEN [1]: 17.33 mg/dL | CARBON DIOXIDE [1]: 23.33 mmol/L | CHLORIDE [1]: 104.33 MEQ/L | CHOLESTEROL [1]: 76.67 mg/dL | CREATINE PHOSPHOKINASE [1]: 277 u/L | CREATININE [1]: 0.21 mg/dL | GLUCOSE [1]: 141.33 mg/dL | LACTATE DEHYDROGENASE [1]: 295.67 u/L | LIPASE [1]: 9 u/L | PHOSPHORUS [1]: 13.07 mg/dL | POTASSIUM [1]: 6.29 MEQ/L | SODIUM [1]: 144.97 MEQ/L | TOTAL BILIRUBIN [1]: 0.17 mg/dL | TOTAL PROTEIN [1]: 5.8 G/DL | URIC ACID [1]: 1.83 mg/dL | ABSOLUTE BASOPHIL [2]: 0 CELLS/uL | ABSOLUTE EOSINOPHIL [2]: 240.33 CELLS/uL | ABSOLUTE LYMPHOCYTE [2]: 12544 CELLS/uL | ABSOLUTE MONOCYTE [2]: 44.33 CELLS/uL | ABSOLUTE SEGMENTED NEUTROPHIL [2]: 838 CELLS/uL | BASOPHIL [2]: 0% | EOSINOPHIL [2]: 1.67% | ERYTHROCYTE COUNT [2]: 5.29 x10E6/uL | HEMATOCRIT [2]: 33.47% | HEMOGLOBIN [2]: 12.83 G/DL | LEUKOCYTE COUNT [2]: 13.67 x10E3/uL | LYMPHOCYTE [2]: 91.67% | MEAN CORPUSCULAR HEMOGLOBIN [2]: 24.23 pg | MEAN CORPUSCULAR HEMOGLOBIN CONCENTRATION [2]: 38.33 G/DL | MEAN CORPUSCULAR VOLUME [2]: 63.23 fL | MONOCYTE [2]: 0.33% | NEUTROPHIL [2]: 6.33% | NUCLEATED RED BLOOD CELLS [2]: 0 /100WBC | PLATELET COUNT [2]: 1291.33 x10E3/uL | ALANINE AMINOTRANSFERASE [2]: 65.33 u/L | ALBUMIN [2]: 4.1 G/DL | ALKALINE PHOSPHATASE [2]: 447.33 u/L | ASPARTATE AMINOTRANSFERASE [2]: 89 u/L | BLOOD UREA NITROGEN [2]: 15.67 mg/dL | CARBON DIOXIDE [2]: 27.33 mmol/L | CHLORIDE [2]: 102.67 MEQ/L | CHOLESTEROL [2]: 73.33 mg/dL | CREATINE PHOSPHOKINASE [2]: 209.33 u/L | CREATININE [2]: 0.18 mg/dL | GLUCOSE [2]: 161.67 mg/dL | LACTATE DEHYDROGENASE [2]: 102 u/L | LIPASE [2]: 9 u/L | PHOSPHORUS [2]: 13.27 mg/dL | POTASSIUM [2]: 6.83 MEQ/L | SODIUM [2]: 146.53 MEQ/L | TOTAL BILIRUBIN [2]: 0.17 mg/dL | TOTAL PROTEIN [2]: 5.63 G/DL | URIC ACID [2]: 1.73 mg/dL | ABSOLUTE BASOPHIL [3]: 0 CELLS/uL | ABSOLUTE EOSINOPHIL [3]: 130.33 CELLS/uL | ABSOLUTE LYMPHOCYTE [3]: 11683.33 CELLS/uL | ABSOLUTE MONOCYTE [3]: 0 CELLS/uL | ABSOLUTE SEGMENTED NEUTROPHIL [3]: 1019.67 CELLS/uL | BASOPHIL [3]: 0% | EOSINOPHIL [3]: 1% | ERYTHROCYTE COUNT [3]: 5.74 x10E6/uL | HEMATOCRIT [3]: 36.23% | HEMOGLOBIN [3]: 13.93 G/DL | LEUKOCYTE COUNT [3]: 12.83 x10E3/uL | LYMPHOCYTE [3]: 91% | MEAN CORPUSCULAR HEMOGLOBIN [3]: 24.47 pg | MEAN CORPUSCULAR HEMOGLOBIN CONCENTRATION [3]: 38.5 G/DL | MEAN CORPUSCULAR VOLUME [3]: 63.5 fL | MONOCYTE [3]: 0% | NEUTROPHIL [3]: 8% | NUCLEATED RED BLOOD CELLS [3]: 0 /100WBC | PLATELET COUNT [3]: 1185.67 x10E3/uL | ALANINE AMINOTRANSFERASE [3]: 58.67 u/L | ALBUMIN [3]: 4.4 G/DL | ALKALINE PHOSPHATASE [3]: 302 u/L | ASPARTATE AMINOTRANSFERASE [3]: 76 u/L | BLOOD UREA NITROGEN [3]: 18.33 mg/dL | CARBON DIOXIDE [3]: 27 mmol/L | CHLORIDE [3]: 104 MEQ/L | CHOLESTEROL [3]: 62.67 mg/dL | CREATINE PHOSPHOKINASE [3]: 174 u/L | CREATININE [3]: 0.22 mg/dL | GLUCOSE [3]: 170 mg/dL | LACTATE DEHYDROGENASE [3]: 115.67 u/L | LIPASE [3]: 9 u/L | PHOSPHORUS [3]: 12.83 mg/dL | POTASSIUM [3]: 6.45 MEQ/L | SODIUM [3]: 148.17 MEQ/L | TOTAL BILIRUBIN [3]: 0.2 mg/dL | TOTAL PROTEIN [3]: 6.2 G/DL | URIC ACID [3]: 1.8 mg/dL
